Measured values published in publication PMC5487955, “Microarray Selection of Cooperative Peptides for Modulating Enzyme Activities” (Microarrays, 2017).
Values joined by “and” are separate entries in the source; they are usually repeats but may differ in a detail not shown here. Identical values can stand only once. Where no end group is shown, it is not given here.

What was measured:
β-galactosidase (β-Gal) [1] = molecular target: T1, β-galactosidase (β-Gal) (Escherichia coli, UniProt P00722); details: negative control selection
Source text: Microarrays of 10,000 20-mer peptides were produced by Arizona State University as previously reported [14, 17]. […] Each polypeptide was 20 residues in length, with 17 positions randomly chosen from a set of 19 amino acids (excluding cysteine). The C-terminal 3 positions of each peptide was a glycine–serine–cysteine (GSC) linker, which was used for conjugating peptides to amino-silane surfaces via a maleimide linker, sulfosuccinimidyl 4-(N-maleimidomethyl)cyclohexane-1-carboxylate (Sulfo-SMCC; Pierce, Rockford, IL, USA). The array printing was performed by using a Telechem Nanoprint60 (Arrayit, Sunnyvale, CA, USA) hat spotted approximately 500 pL of 1 mg/mL peptide per feature on glass slides with 48 Telechem series SMP2-style 946 titanium pins (Arrayit).
Binding of enzymes on the microarray was performed as previously described [17, 18]. […] Then, the array was incubated with a solution containing 5 nM Alexa 647-labeled β-Gal or PEP-1–β-Gal complex for two hours, allowing the enzyme to bind with peptides on the array surface. After washing off unbound enzymes, the array was read by a standard array reader (PerkinElmer, Waltham, MA, USA) with color scanning using 647 nm laser lines.

[2] = tested on: crosslinked PEP-1–β-Gal complex; assay: Peptide microarray binding of crosslinked PEP-1–β-Gal complex; details: negative control selection
Experimental: Firstly, 20 μM PEP-1 (sequence of “RVFKRKRWLHVSRYYFGSC”) was incubated with 30 nM β-Gal for 20 min, and then 0.5% formaldehyde was added to the peptide/enzyme mixture. It was then incubated for another 20 min in order to crosslink the peptide with enzyme. The entire mixture was then diluted by 100 × in phosphate buffer to bring the overall peptide concentration as low as 200 nM.

β-galactosidase (β-Gal) [3] = molecular target: T1, β-galactosidase (β-Gal); assay: biochemical; set-up: purchased Sigma (St. Louis, MO, USA); details: for reduction of enzyme activity, combination with PEP-1: 100 μM NEW peptide + 2 μM PEP-1; for reduction of enzyme activity, NEW peptide alone: 100 μM peptide by itself, pH 7.4 10 mM potassium phosphate, 100 μM MgCl2, 25 °C, at least three replicates
Experimental: Solution-based enzyme assays were performed on SpectraMax M5 96 well plate readers (Molecular Device, Sunnyvale, CA, USA) as described previously. Simply explained, peptides were first incubated with enzyme for 20 min, and then the substrate solution was added into the wells to measure the enzyme activity. At least three replicates per peptide were included. The β-gal-catalyzed hydrolysis of RBG was fluorescently monitored at 590 nm (resorufin) with the excitation at 540 nm. For a typical assay, ~0.3 nM or 1 nM β-Gal was incubated with peptides and 100 μM RBG substrate in pH 7.4, 10 mM potassium phosphate buffer with 100 μM MgCl2 at 25 °C. The reaction rate was determined by the initial velocity of the linear reaction. The percentage of reduced/inhibited enzyme activity was calculated as below: Percentage of reduced activity=(1−Inhibited activity/Noninhibited activity)×100% […]
Figure S1. Titration of IC 50 for PEP-1. The IC 50 of peptide inhibition is measured at a substrate concentration of 100 μM RBG (resorufin β -D-galactopyranoside) and β-Gal concentration of 150 μg/L, 25 °C. All tests included three replicates. Error bar: range of data.
The IC50 of each inhibitor was determined by fitting the concentration vs. inhibition curve to the function ‘Fit LogIC50’ as defined in the program GraphPad Prism 7 using the fitting equation “Y=Bottom+(Top-Bottom)/(1+10^(X-LogIC50))”. The “Bottom” term was constrained to 1, which represents the maximal inhibition of 100%. The “Top” term was constrained to 0, which represents the minimal inhibition of 0%.
The enzyme inhibition was also quantitatively characterized using the inhibition percentage that was calculated using the following equation:
Inhibition Percentage = (Activity uninhibited – Activity inhibited)/ Activity uninhibited × 100%
(1 picture or pasted object on this page, not shown here)

[4] = tested on: inhibited PEP-1–β-Gal complex; assay: Recovery of PEP-1 inhibited enzyme activity; type: biochemical; details: 320 μM NEG added, incubated another 20 min; 1 nM β-Gal preincubated with PEP-1 for 20 min
Experimental: Solution-based enzyme assays were performed on SpectraMax M5 96 well plate readers (Molecular Device, Sunnyvale, CA, USA) as described previously. Simply explained, peptides were first incubated with enzyme for 20 min, and then the substrate solution was added into the wells to measure the enzyme activity. At least three replicates per peptide were included. The β-gal-catalyzed hydrolysis of RBG was fluorescently monitored at 590 nm (resorufin) with the excitation at 540 nm. For a typical assay, ~0.3 nM or 1 nM β-Gal was incubated with peptides and 100 μM RBG substrate in pH 7.4, 10 mM potassium phosphate buffer with 100 μM MgCl2 at 25 °C. The reaction rate was determined by the initial velocity of the linear reaction. The percentage of reduced/inhibited enzyme activity was calculated as below: Percentage of reduced activity=(1−Inhibited activity/Noninhibited activity)×100%
For recovery of PEP-1 inhibited enzyme activity, 1 nM β-Gal was first incubated with PEP-1 for 20 min for inhibiting activity, and then NEG peptide was added to the solution and incubated for another 20 min before the activity assay.

[5] = 100 μM RBG, pH 7.4, 25 °C, 20 min preincubation
[6] = 100 μM RBG, 20 min preincubation

T1 sequence (P00722 2-1024): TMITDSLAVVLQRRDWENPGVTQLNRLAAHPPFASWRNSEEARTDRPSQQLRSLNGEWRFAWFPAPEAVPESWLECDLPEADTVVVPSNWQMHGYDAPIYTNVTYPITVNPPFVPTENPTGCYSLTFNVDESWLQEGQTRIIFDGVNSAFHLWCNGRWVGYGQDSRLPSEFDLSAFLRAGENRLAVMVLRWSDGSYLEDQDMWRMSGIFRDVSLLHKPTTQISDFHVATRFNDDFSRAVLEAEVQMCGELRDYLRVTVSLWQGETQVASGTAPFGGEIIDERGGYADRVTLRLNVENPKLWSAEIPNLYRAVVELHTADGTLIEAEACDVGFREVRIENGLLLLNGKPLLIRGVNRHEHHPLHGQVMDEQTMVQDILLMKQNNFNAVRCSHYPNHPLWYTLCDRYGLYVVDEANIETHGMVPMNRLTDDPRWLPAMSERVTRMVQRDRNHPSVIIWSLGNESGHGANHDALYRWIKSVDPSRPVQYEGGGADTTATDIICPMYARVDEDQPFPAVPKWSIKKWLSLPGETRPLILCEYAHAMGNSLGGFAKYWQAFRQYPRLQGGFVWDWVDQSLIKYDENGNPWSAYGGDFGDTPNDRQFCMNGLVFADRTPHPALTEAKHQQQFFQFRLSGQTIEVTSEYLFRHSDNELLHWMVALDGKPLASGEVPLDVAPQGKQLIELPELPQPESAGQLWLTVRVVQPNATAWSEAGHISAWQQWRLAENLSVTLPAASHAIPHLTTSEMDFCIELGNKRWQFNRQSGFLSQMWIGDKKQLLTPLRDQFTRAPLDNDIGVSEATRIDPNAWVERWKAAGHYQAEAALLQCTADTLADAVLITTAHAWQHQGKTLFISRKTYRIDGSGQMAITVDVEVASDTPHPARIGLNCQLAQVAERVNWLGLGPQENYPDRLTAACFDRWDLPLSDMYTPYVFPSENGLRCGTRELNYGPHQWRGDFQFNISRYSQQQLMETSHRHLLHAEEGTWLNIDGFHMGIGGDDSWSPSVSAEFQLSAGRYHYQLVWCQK

Row | Sequence | reduction of enzyme activity, combination with PEP-1 (β-galactosidase (β-Gal) [3]; [5]) | reduction of enzyme activity, NEW peptide alone (β-galactosidase (β-Gal) [3]; [6]) | other results
1 | ESVPTDLPMDTMEGKNWGSC [NEG, negatively-charged negative control peptide] | – | – | binding to β-Gal on microarray (in words) (β-galactosidase (β-Gal) [1]): neither bound to β-Gal; binding to crosslinked PEP-1–β-gal complex on microarray (in words) [2]: did not show strong binding; inhibition of β-Gal activity, NEG combined with PEP-1 (β-galactosidase (β-Gal) [3]; 10 μM NEG + 2 μM PEP-1): 24%; inhibition of β-Gal, NEG combined with PEP-1 (in words) (β-galactosidase (β-Gal) [3]; 100 μM NEG + 2 μM PEP-1): almost lost the ability to inhibit β-Gal; activity of inhibited PEP-1–β-Gal complex, % of uninhibited enzyme [4]: ~45%
2 | GVSHLHWIKMLNETTVMGSC [NEW-1] | ~ 70% | less than 10% | –
3 | HISPQHMMAYSPKAFDYGSC [NEW-2] | ~ 73% | ~ 12% | –
4 | MHNHAFNDNHGRGPTAWGSC [NEW-4] | 91% | ~ 26% | –
5 | RVFKRKRWLHVSRYYFGSC [PEP-1] | – | – | IC50 (β-galactosidase (β-Gal) [3]): ~1.6 µM; reduction of enzyme activity, PEP-1 by itself (β-galactosidase (β-Gal) [3]; 2 μM PEP-1 alone, 100 μM RBG, pH 7.4, 25 °C, 20 min preincubation): ~ 57% and 57%
6 | YDTLHRNRQMMDWQFEPGSC [NEW-3] | ~ 86% | ~ 19% | –
